# Test results as given in ChEMBL document CHEMBL3046609, “Herbicidal properties of the thaxtomin group of phytotoxins” (2001).
# Activity calls are given as the source filed them. No cut-off for these calls is given here.
# Columns and labels:
# Helianthus annuus [1] = experiment: Herbicidal activity against Helianthus annuus (sunflower) assessed as visual injury at 10 ug/seedling applied to meristem after 1 week relative to control; type: functional
# Helianthus annuus [2] = experiment: Herbicidal activity against Helianthus annuus (sunflower) assessed as visual injury at 100 ug/seedling applied to meristem after 1 week relative to control; type: functional
# Helianthus annuus [3] = experiment: Post-emergence growth inhibition of Helianthus annuus (sunflower) after 9 days; type: functional
# Ipomoea hederacea [4] = experiment: Post-emergence herbicidal activity against Ipomoea hederacea (ivy-leaved morning glory) after 9 days; type: functional
# Avena fatua [5] = experiment: Pre-emergence growth inhibition of Avena fatua assessed as visual injury at 2 kg/ha after 16 days relative to control; type: functional; parameters: scale not given: the % may be the effect or the level left
# Ipomoea hederacea [6] = experiment: Herbicidal activity against Ipomoea hederacea (ivy-leaved morning glory) assessed as visual injury at 100 ug/seedling applied to cotyledon after 1 week relative to control; type: functional
# Ipomoea hederacea [7] = experiment: Herbicidal activity against Ipomoea hederacea (ivy-leaved morning glory) assessed as visual injury at 1 ug/seedling applied to meristem after 1 week relative to control; type: functional
# [8] = tested on: Agrostis stolonifera var. palustris; experiment: Herbicidal activity against Agrostis stolonifera var. palustris assessed as stunting after 9 days by agarose-based test; type: functional, organism-based
# Helianthus annuus [9] = experiment: Herbicidal activity against Helianthus annuus (sunflower) assessed as visual injury at 1 ug/seedling applied to cotyledon after 1 week relative to control; type: functional
# Helianthus annuus [10] = experiment: Herbicidal activity against Helianthus annuus (sunflower) assessed as visual injury at 10 ug/seedling applied to cotyledon after 1 week relative to control; type: functional
# Abutilon theophrasti = experiment: Herbicidal activity against Abutilon theophrasti (velvetleaf) assessed as visual injury at 1 ug/seedling applied to meristem after 1 week relative to control; type: functional
# Echinochloa crus-galli [11] = experiment: Pre-emergence herbicidal activity against Echinochloa crus-galli (barnyard grass) assessed as meristematic at 0.5 to 4 kg/ha after 16 days; type: functional, organism-based
# Ipomoea hederacea [12] = experiment: Pre-emergence herbicidal activity against Ipomoea hederacea (ivy-leaved morning glory) assessed as stunting at 0.5 to 4 kg/ha after 16 days; type: functional, organism-based
# Echinochloa crus-galli [13] = experiment: Pre-emergence herbicidal activity against Echinochloa crus-galli (barnyard grass) after 16 days; type: functional
# Avena fatua [14] = experiment: Pre-emergence growth inhibition of Avena fatua after 16 days; type: functional
# Ipomoea hederacea [15] = experiment: Pre-emergence herbicidal activity against Ipomoea hederacea (ivy-leaved morning glory) after 16 days; type: functional
# Echinochloa crus-galli [16] = experiment: Post-emergence herbicidal activity against Echinochloa crus-galli (barnyard grass) assessed as wilting at 0.5 to 4 kg/ha after 9 days; type: functional, organism-based
# Avena fatua [17] = experiment: Post-emergence growth inhibition of Avena fatua assessed as meristematic at 0.5 to 4 kg/ha after 9 days; type: functional, organism-based
# Ipomoea hederacea [18] = experiment: Post-emergence herbicidal activity against Ipomoea hederacea (ivy-leaved morning glory) assessed as meristematic at 0.5 to 4 kg/ha after 9 days; type: functional, organism-based
# Avena fatua [19] = experiment: Post-emergence growth inhibition of Avena fatua assessed as stunting at 0.5 to 4 kg/ha after 9 days; type: functional, organism-based
# Echinochloa crus-galli [20] = experiment: Post-emergence herbicidal activity against Echinochloa crus-galli (barnyard grass) assessed as stunting at 0.5 to 4 kg/ha after 9 days; type: functional, organism-based
# Helianthus annuus [21] = experiment: Post-emergence growth inhibition of Helianthus annuus (sunflower) assessed as stunting at 0.5 to 4 kg/ha after 9 days; type: functional, organism-based
# Echinochloa crus-galli [22] = experiment: Pre-emergence herbicidal activity against Echinochloa crus-galli (barnyard grass) assessed as visual injury at 4 kg/ha after 16 days relative to control; type: functional
# Ipomoea hederacea [23] = experiment: Pre-emergence herbicidal activity against Ipomoea hederacea (ivy-leaved morning glory) assessed as visual injury at 4 kg/ha after 16 days relative to control; type: functional
# Arabidopsis thaliana [24] = experiment: Growth inhibition of Arabidopsis thaliana var. Columbia assessed as root tip puffing after 9 days by agarose-based test; type: functional, organism-based
# Arabidopsis thaliana [25] = experiment: Growth inhibition of Arabidopsis thaliana var. Columbia assessed as stunting after 9 days by agarose-based test; type: functional, organism-based
# [26] = tested on: Agrostis stolonifera var. palustris; experiment: Herbicidal activity against Agrostis stolonifera var. palustris after 9 days by agarose-based test; type: functional
# Arabidopsis thaliana [27] = experiment: Growth inhibition of Arabidopsis thaliana var. Columbia after 9 days by agarose-based test; type: functional
# Lemna minor [28] = experiment: Herbicidal activity against Lemna minor (common duckweed) assessed as visual injury at 0.008 ppm after 9 days relative to control; type: functional
# Lemna minor [29] = experiment: Herbicidal activity against Lemna minor (common duckweed) assessed as visual injury at 0.04 ppm after 9 days relative to control; type: functional
# Lemna minor [30] = experiment: Herbicidal activity against Lemna minor (common duckweed) assessed as visual injury at 1 ppm after 9 days relative to control; type: functional
# [31] = tested on: Agrostis stolonifera var. palustris; experiment: Herbicidal activity against Agrostis stolonifera var. palustris assessed as visual injury at 1 ppm after 9 days relative to control; type: functional
# [32] = tested on: Agrostis stolonifera var. palustris; experiment: Herbicidal activity against Agrostis stolonifera var. palustris assessed as visual injury at 5 ppm after 9 days relative to control; type: functional
# [33] = tested on: Agrostis stolonifera var. palustris; experiment: Herbicidal activity against Agrostis stolonifera var. palustris assessed as visual injury at 0.2 ppm after 9 days relative to control; type: functional
# [34] = tested on: Agrostis stolonifera var. palustris; experiment: Herbicidal activity against Agrostis stolonifera var. palustris assessed as visual injury at 0.04 ppm after 9 days relative to control; type: functional
# Echinochloa crus-galli [35] = experiment: Pre-emergence herbicidal activity against Echinochloa crus-galli (barnyard grass) assessed as visual injury at 0.5 kg/ha after 16 days relative to control; type: functional
# Ipomoea hederacea [36] = experiment: Pre-emergence herbicidal activity against Ipomoea hederacea (ivy-leaved morning glory) assessed as visual injury at 2 kg/ha after 16 days relative to control; type: functional
# Helianthus annuus [37] = experiment: Pre-emergence growth inhibition of Helianthus annuus (sunflower) assessed as visual injury at 4 kg/ha after 16 days relative to control; type: functional; parameters: scale not given: the % may be the effect or the level left
# Avena fatua [38] = experiment: Post-emergence growth inhibition of Avena fatua assessed as visual injury at 0.5 kg/ha after 9 days relative to control; type: functional; parameters: scale not given: the % may be the effect or the level left
# Avena fatua [39] = experiment: Post-emergence growth inhibition of Avena fatua assessed as visual injury at 1 kg/ha after 9 days relative to control; type: functional; parameters: scale not given: the % may be the effect or the level left
# Avena fatua [40] = experiment: Post-emergence growth inhibition of Avena fatua assessed as visual injury at 4 kg/ha after 9 days relative to control; type: functional; parameters: scale not given: the % may be the effect or the level left
# Echinochloa crus-galli [41] = experiment: Post-emergence herbicidal activity against Echinochloa crus-galli (barnyard grass) assessed as visual injury at 1 kg/ha after 9 days relative to control; type: functional
# Echinochloa crus-galli [42] = experiment: Post-emergence herbicidal activity against Echinochloa crus-galli (barnyard grass) assessed as visual injury at 2 kg/ha after 9 days relative to control; type: functional
# Ipomoea hederacea [43] = experiment: Post-emergence herbicidal activity against Ipomoea hederacea (ivy-leaved morning glory) assessed as visual injury at 2 kg/ha after 9 days relative to control; type: functional
# Ipomoea hederacea [44] = experiment: Post-emergence herbicidal activity against Ipomoea hederacea (ivy-leaved morning glory) assessed as visual injury at 4 kg/ha after 9 days relative to control; type: functional
# Helianthus annuus [45] = experiment: Post-emergence growth inhibition of Helianthus annuus (sunflower) assessed as visual injury at 0.5 kg/ha after 9 days relative to control; type: functional; parameters: scale not given: the % may be the effect or the level left
# Helianthus annuus [46] = experiment: Post-emergence growth inhibition of Helianthus annuus (sunflower) assessed as visual injury at 1 kg/ha after 9 days relative to control; type: functional; parameters: scale not given: the % may be the effect or the level left
# Helianthus annuus [47] = experiment: Post-emergence growth inhibition of Helianthus annuus (sunflower) assessed as visual injury at 2 kg/ha after 9 days relative to control; type: functional; parameters: scale not given: the % may be the effect or the level left
# Avena fatua [48] = experiment: Pre-emergence growth inhibition of Avena fatua assessed as visual injury at 1 kg/ha after 16 days relative to control; type: functional; parameters: scale not given: the % may be the effect or the level left
# Avena fatua [49] = experiment: Pre-emergence growth inhibition of Avena fatua assessed as visual injury at 4 kg/ha after 16 days relative to control; type: functional; parameters: scale not given: the % may be the effect or the level left
compound,measurement,setting,value
CN1C(=O)[C@](O)(Cc2cccc(O)c2)N(C)C(=O)[C@@H]1Cc1c[nH]c2cccc([N+](=O)[O-])c12 [THAXTOMIN A],Activity,Helianthus annuus [1],90%
same,Activity,Helianthus annuus [2],90%
same,GR50,Helianthus annuus [3],<500 g/ha
same,GR50,Ipomoea hederacea [4],<500 g/ha
same,Activity,Avena fatua [5],100%
same,Activity,Ipomoea hederacea [6],0%
same,Activity,Ipomoea hederacea [7],75%
same,Activity,[8],Active
same,Activity,Helianthus annuus [9],0%
same,Activity,Helianthus annuus [10],0%
same,Activity,Abutilon theophrasti,20%
same,Activity,Echinochloa crus-galli [11],Active
same,Activity,Ipomoea hederacea [12],Active
same,GR50,Echinochloa crus-galli [13],<500 g/ha
same,GR50,Avena fatua [14],<500 g/ha
same,GR50,Ipomoea hederacea [15],<500 g/ha
same,Activity,Echinochloa crus-galli [16],Active
same,Activity,Avena fatua [17],Active
same,Activity,Ipomoea hederacea [18],Active
same,Activity,Avena fatua [19],Active
same,Activity,Echinochloa crus-galli [20],Active
same,Activity,Helianthus annuus [21],Active
same,Activity,Echinochloa crus-galli [22],100%
same,Activity,Ipomoea hederacea [23],100%
same,growth inhibition (GI),Arabidopsis thaliana [24],Active
same,growth inhibition (GI),Arabidopsis thaliana [25],Active
same,I50,[26],25 ppb
same,I50,Arabidopsis thaliana [27],10 ppb
same,Activity,Lemna minor [28],30%
same,Activity,Lemna minor [29],70%
same,Activity,Lemna minor [30],100%
same,Activity,[31],100%
same,Activity,[32],100%
same,Activity,[33],100%
same,Activity,[34],80%
same,Activity,Echinochloa crus-galli [35],98%
same,Activity,Ipomoea hederacea [36],100%
same,Activity,Helianthus annuus [37],100%
same,Activity,Avena fatua [38],0%
same,Activity,Avena fatua [39],30%
same,Activity,Avena fatua [40],80%
same,Activity,Echinochloa crus-galli [41],20%
same,Activity,Echinochloa crus-galli [42],40%
same,Activity,Ipomoea hederacea [43],80%
same,Activity,Ipomoea hederacea [44],85%
same,Activity,Helianthus annuus [45],75%
same,Activity,Helianthus annuus [46],85%
same,Activity,Helianthus annuus [47],85%
same,Activity,Avena fatua [48],100%
same,Activity,Avena fatua [49],100%
